Entries after “also recorded” stand apart in the source; their conditions may differ. Read-outs that look alike come from different tables or passages of the source. Values belong to the molecule of their own block, whether it stands above or below them.
Key:
[1] = test system: murine collagen-induced arthritis (CIA) model; assay: murine collagen-induced arthritis (CIA) model; assay type: in vivo, mice; conditions: for inflammatory synovitis, pannus formation, synovial fluid cytokines, cartilage damage and bone erosion: preventive and established murine CIA models
Protocol: Male mice 7 weeks of age were purchased from Harlan Laboratories, and acclimated for a minimum of 3 days. Mice were immunized on Day 0 with 150 μg of bovine collagen II (Chondrex Inc) in CFA (Sigma), and boosted with 100 μg of bovine collagen II in IFA on day 21. Fore and hind paws of mice were scored daily with a clinical scoring system using the following criteria:
0=normal 1=1 hind or fore paw joint affected • with minimal diffuse swelling and erythema (redness of the skin due to congestion of the capillaries)
2=2 hind or fore paw joints affected • with minimal diffuse swelling and erythema (redness of the skin due to congestion of the capillaries)
3=3 hind or fore paw joints affected • with minimal diffuse swelling and erythema (redness of the skin due to congestion of the capillaries)
4=minimum of 4 joints affected • marked diffuse swelling and erythema (redness of the skin due to congestion of the capillaries)
5=minimum entire paw, • unable to flex (Severe diffuse swelling and erythema redness of the skin due to congestion of the capillaries
Mice were enrolled randomly into treatment groups when a minimum mean paw score of 1.0 was established. The treatments started on the day of enrollment and continued for 12 days. Clinical scores were monitored daily for each animal in the treatment groups.

[2] = hepatic extraction ratio in rats; assay type: in vivo; conditions: oral, 1-(AUC systemic÷AUC portal)
Protocol: The analyses were performed using nominal sample times and a noncompartmental method with uniform weighting. Pharmacokinetic parameter estimates included terminal half-life and area under the concentration-time curve (AUC). Extraction ratios were calculated as 1-(AUC systemic÷AUC portal).

[3] = interspecies scaling of clearance and estimation of efficacious human daily dosage; conditions: FIG. 7
Protocol: There is an excellent scaling of clearance (dose/AUC) within mice, rats and dogs, and therefore exposure to dose projection in humans is likely precise. Based on interspecies scaling of clearance, the human BW normalized CL/F was determined to be about 2.53 (FIG. 7).

Abl = Abl (Homo sapiens, UniProt P00519); assay: kinase selectivity, Abl; assay type: biochemical
in vitro = conditions: human, liver microsomes
CD20+ B cells [4] = assay: B cell viability; assay type: cell-based, human; conditions: concentrations below 10 μM
Protocol: (§1) CD20+ B and CD3+ T cells were purified by negative selection (RosetteSep, >90% purity) from Buffy coat PBMC and viably frozen in 10% DMSO. Cells were thawed at 37° C. and maintained in growth media (RPMI media containing 10% FCS). B cells were stimulated with goat anti-human IgM F(ab′)2 (10 ug/ml, Invitrogen) and T cells were stimulated with anti-CD3/CD28 coated beads (Dynabeads) at a 1:1 bead/cell ratio. Cells were stained with PE-CD69 (BD) and analyzed by flow cytometry, gating on viable lymphocytes. […] For washout experiments, cells were rinsed 3× in 10 volumes of growth media, a protocol that was confirmed to completely wash away inhibition of BCR signaling by a reversible Btk inhibitor.

EGFR = EGFR (Homo sapiens, UniProt P00533); assay: kinase selectivity, EGFR; assay type: biochemical
Chain of EGFR (P00533 25-1210, species assumed): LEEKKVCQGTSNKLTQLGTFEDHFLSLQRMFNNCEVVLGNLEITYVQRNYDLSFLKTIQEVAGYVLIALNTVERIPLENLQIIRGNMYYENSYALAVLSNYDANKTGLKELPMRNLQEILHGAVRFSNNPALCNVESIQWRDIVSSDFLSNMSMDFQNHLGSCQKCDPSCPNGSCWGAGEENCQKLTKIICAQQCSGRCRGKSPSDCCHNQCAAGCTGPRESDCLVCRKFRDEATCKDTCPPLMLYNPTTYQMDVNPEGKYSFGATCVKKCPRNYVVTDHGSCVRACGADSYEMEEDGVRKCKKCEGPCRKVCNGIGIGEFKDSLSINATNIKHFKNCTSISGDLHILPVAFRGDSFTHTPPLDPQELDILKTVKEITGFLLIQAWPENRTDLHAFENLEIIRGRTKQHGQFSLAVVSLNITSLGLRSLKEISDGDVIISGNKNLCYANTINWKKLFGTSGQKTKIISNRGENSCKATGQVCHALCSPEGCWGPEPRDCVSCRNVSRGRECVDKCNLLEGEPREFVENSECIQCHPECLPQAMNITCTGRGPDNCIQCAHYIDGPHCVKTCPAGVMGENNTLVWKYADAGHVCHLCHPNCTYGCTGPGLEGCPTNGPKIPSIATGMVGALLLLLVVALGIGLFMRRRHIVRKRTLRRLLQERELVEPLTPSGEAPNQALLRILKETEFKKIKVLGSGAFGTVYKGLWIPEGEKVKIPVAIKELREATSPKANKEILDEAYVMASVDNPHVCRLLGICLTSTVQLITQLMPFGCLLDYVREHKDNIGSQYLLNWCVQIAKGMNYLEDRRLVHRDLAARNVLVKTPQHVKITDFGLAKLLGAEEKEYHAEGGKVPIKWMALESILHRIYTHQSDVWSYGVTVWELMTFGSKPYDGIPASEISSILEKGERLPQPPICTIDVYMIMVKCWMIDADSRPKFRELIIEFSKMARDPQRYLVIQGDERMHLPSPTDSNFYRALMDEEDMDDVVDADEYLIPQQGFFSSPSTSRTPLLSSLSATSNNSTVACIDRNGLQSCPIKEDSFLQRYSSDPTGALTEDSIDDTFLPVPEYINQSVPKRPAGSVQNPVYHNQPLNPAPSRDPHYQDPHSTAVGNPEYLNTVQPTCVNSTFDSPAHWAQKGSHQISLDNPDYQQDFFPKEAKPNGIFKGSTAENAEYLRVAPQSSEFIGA

Btk = Btk (Homo sapiens, UniProt Q06187); assay: Btk biochemical assays
Chain of Btk (Q06187 whole entry): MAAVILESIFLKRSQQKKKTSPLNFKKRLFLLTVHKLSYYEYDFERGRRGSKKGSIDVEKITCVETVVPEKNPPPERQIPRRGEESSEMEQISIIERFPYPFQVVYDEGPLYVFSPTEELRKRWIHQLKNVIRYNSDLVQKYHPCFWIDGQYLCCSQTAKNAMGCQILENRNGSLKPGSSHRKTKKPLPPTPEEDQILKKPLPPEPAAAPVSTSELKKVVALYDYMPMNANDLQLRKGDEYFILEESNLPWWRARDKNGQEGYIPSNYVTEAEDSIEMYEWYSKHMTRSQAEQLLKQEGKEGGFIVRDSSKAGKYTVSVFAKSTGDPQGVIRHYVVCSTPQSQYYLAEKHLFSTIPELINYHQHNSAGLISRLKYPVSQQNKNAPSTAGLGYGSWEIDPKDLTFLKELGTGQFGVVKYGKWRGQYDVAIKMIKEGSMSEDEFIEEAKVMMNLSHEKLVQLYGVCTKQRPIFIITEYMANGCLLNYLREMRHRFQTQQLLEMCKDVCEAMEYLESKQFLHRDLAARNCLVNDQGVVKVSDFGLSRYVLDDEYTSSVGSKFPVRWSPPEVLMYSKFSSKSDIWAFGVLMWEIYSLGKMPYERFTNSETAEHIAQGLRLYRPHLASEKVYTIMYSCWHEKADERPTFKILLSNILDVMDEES

CD3+ T cells = assay: T cell viability; assay type: cell-based, human; conditions: concentrations below 10 μM
Protocol: as §1

in vivo = conditions: CDIGS, rat
JAK2 = JAK2 (Homo sapiens, UniProt O60674); assay: kinase selectivity, JAK2; assay type: biochemical
Chain of JAK2 (O60674 whole entry): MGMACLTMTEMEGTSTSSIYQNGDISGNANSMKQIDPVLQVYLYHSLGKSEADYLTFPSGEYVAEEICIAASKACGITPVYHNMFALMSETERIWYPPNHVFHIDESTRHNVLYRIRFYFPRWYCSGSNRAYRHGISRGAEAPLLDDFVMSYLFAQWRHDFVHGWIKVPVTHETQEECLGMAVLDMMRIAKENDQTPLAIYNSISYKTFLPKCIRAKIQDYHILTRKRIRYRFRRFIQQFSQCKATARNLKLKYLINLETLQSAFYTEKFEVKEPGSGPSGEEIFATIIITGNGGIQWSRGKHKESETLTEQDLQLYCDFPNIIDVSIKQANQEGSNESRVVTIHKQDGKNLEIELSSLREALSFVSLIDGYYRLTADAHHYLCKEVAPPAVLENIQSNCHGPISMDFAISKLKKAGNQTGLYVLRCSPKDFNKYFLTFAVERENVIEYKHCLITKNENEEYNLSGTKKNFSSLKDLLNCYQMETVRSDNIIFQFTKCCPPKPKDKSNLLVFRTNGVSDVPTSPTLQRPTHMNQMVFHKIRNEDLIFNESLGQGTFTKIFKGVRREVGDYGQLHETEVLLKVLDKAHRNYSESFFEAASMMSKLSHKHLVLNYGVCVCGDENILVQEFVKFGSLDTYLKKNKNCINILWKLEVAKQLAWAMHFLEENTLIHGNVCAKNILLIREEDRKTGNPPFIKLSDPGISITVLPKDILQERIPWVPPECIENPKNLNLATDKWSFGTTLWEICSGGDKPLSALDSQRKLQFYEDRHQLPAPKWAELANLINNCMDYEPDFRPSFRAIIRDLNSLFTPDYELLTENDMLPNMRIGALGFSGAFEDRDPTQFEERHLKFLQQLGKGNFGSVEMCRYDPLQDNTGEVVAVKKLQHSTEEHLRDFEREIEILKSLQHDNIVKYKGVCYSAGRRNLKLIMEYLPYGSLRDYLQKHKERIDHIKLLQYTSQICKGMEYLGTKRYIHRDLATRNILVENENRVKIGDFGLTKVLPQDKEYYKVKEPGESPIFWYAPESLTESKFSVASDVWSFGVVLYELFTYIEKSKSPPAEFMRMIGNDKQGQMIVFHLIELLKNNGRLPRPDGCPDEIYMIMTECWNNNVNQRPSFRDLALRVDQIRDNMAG

CD20+ B cells [5] = assay: human B cell activation following BCR stimulation by anti-IgM (CD69); assay type: cell-based; conditions: read-out: EC50 of inhibition of human B cell activation
Protocol: as §1

[6] = test system: murine collagen-antibody-induced arthritis model (CAIA model); assay: murine collagen-antibody-induced arthritis model (CAIA model); assay type: in vivo, DBA/1 mice; conditions: for dose that completely suppressed the development of arthritis: mouse, in vivo
Protocol: DBA/1 mice were injected intravenously with 2 mg of Arthrogen-CIA 5 mouse anti-bovine collagen (Chondrex) on day 0. Three days later, these mice were injected IP with 50 μg of LPS.
Mice were monitored for clinical symptoms daily with the criteria below.
0=normal 1=1 hind or fore paw joint affected 2=2 hind or fore paw joints affected 3=3 hind or fore paw joints affected 4=moderate (erythema and moderate swelling, or =4 digit joints affected) 5=severe (diffuse erythema and severe swelling entire paw, unable to flex digits)

JAK1 = JAK1 (Homo sapiens, UniProt P23458); assay: kinase selectivity, JAK1; assay type: biochemical
VEGFR2 = VEGFR2 (Homo sapiens, UniProt P35968); assay: kinase selectivity, VEGFR2; assay type: biochemical
Chain of VEGFR2 (P35968 20-1356, species assumed): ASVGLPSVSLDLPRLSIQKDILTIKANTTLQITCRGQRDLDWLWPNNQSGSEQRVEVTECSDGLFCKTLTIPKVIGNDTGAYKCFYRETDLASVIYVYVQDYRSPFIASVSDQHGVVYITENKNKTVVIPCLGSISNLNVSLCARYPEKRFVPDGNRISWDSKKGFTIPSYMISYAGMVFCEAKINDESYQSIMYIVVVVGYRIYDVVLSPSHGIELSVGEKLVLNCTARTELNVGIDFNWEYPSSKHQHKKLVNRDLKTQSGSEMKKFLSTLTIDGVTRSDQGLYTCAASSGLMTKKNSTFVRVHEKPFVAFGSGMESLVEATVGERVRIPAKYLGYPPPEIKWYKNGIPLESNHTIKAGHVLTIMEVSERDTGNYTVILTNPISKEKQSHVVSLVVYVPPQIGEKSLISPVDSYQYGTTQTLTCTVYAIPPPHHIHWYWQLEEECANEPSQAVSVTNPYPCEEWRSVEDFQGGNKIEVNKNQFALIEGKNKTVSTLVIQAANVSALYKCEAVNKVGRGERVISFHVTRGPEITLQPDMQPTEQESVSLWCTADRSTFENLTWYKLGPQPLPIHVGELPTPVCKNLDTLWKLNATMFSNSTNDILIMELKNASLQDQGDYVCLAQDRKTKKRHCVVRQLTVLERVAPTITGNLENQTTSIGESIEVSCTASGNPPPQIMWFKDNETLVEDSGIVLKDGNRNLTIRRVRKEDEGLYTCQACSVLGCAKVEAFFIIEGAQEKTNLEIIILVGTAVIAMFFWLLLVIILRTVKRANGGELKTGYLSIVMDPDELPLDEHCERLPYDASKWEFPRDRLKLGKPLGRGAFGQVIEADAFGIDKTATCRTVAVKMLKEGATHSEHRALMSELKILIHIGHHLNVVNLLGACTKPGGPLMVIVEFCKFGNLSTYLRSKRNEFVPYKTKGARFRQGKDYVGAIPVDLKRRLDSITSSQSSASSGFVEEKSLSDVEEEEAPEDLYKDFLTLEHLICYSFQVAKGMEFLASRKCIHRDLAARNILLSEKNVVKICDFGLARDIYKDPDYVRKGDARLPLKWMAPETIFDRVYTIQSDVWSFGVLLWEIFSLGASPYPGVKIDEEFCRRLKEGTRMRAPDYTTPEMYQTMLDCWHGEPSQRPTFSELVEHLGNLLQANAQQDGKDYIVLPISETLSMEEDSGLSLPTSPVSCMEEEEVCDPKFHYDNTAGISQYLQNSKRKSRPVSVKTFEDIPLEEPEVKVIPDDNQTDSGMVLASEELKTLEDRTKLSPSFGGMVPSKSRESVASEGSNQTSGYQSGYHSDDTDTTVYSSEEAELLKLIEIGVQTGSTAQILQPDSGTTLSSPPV

RAW264.7 cells = assay: IgG mediated phagocytosis of Zymosan particles; assay type: cell-based, murine; conditions: IgG opsonized Zymosan particles, RAW cells
Protocol: Prelabeled Zymosan particles were first opsonized with mouse IgG at 37 C for 30 min, and then centrifuged down and washed several times with PBS. The Zymosan particles are the resuspended in PBS.

human monocytes = assay: human monocyte cytokine release assay (IgG stimulation); assay type: cell-based; conditions: for release of IL-1β from human monocytes following FcγR stimulation with IgG: FIG. 2
Protocol: Human monocytes were isolated from Ficoll-gradient purified PBMC from healthy human volunteers using negative selection with EasySep (StemCells) magnetic beads. CD14+monocytes were then stimulated with IFN-gamma for 6 days, and then 2×10^6 cells were plated onto 10 μg/ml of human IgG (R&D Biosystems) coated onto Immulon 4 ELISA plates. […] Supernatants were collected from the plates and cytokines levels were determined with ELISA kits.

[7] = test system: human whole blood basophils; assay: whole blood basophil assay, CD63 after anti-IgE stimulation; assay type: cell-based; conditions: for EC50: human whole blood basophils, read-out: EC50 of inhibition of anti-IgE mediated upregulation of CD63
Protocol: Fresh whole blood was collected on the day of the experiment from a healthy volunteer. Whole blood is stimulated with 10 ng/mL of rhIL-3 (Invitrogen) and […] of anti-IgE (Beckman Coulter) in Basophil Stimulation Buffer (20 mM HEPES pH 7.4, 125 mM NaCl, 5 mM KCl, 2.5 mM CaCl2, 1 mM MgCl2, 0.5% Glucose, 0.1% BSA) at 37° C. for 15 min. The reaction was terminated by the addition of EDTA. The stimulated whole blood was then stained with a fluorescent three-antibody cocktail (FITC-Anti-CD63/PerCP-Anti-HLA-DR/PE-Anti-CD123) (BD Biosciences) at room temperature in the dark for 15 min. Following staining, blood was treated with 1×FACS Lysing solution (BD Biosciences) for 15 minutes to lyse the RBC. The lysed RBC supernatant was removed following centrifugation for […]. The cell pellet was resuspended and fixed in 0.5% paraformaldehyde in PBS. The percentage of basophil degranulation was determined by the % of CD63 cells that were CD123 positive and HLA-DR negative.

JAK3 = biological target: T1, JAK3 (Homo sapiens, UniProt P52333); assay: kinase selectivity, JAK3; assay type: biochemical
T1 sequence (P52333 1-1124): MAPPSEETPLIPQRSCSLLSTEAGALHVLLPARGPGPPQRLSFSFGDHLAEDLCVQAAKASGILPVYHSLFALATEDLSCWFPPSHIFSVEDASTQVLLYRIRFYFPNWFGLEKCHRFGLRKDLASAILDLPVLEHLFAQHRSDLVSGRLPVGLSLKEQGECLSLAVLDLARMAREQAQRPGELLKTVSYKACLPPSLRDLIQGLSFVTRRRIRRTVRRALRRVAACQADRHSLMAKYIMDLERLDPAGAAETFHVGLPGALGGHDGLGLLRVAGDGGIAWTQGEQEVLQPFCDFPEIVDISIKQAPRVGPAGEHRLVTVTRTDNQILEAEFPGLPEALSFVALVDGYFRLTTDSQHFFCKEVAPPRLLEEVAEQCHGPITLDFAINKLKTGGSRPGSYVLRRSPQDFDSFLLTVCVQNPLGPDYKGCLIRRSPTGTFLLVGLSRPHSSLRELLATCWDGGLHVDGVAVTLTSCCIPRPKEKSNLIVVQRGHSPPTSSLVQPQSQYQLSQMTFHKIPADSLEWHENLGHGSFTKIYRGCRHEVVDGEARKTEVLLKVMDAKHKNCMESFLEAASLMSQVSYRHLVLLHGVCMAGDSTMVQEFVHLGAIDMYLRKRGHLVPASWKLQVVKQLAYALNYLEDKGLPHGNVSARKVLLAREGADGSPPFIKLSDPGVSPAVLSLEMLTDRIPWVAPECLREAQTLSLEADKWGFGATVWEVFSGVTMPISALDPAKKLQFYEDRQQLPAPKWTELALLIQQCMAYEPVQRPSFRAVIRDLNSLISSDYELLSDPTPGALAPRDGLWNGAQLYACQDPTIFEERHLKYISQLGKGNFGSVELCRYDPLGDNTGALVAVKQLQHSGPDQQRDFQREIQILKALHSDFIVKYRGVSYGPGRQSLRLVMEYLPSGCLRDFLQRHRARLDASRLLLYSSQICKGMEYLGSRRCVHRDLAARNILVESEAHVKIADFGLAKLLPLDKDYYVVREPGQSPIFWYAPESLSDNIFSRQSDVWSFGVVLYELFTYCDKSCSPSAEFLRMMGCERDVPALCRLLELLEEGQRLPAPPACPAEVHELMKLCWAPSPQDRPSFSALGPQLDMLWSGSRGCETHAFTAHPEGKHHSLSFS

SMILES: CN(Cc1cnc2nc(N)nc(N)c2n1)c1ccc(C(=O)N[C@@H](CCC(=O)O)C(=O)O)cc1 [methotrexate, reference compound]
clinical arthritis, disease course ([1]; 1.5 mg/kg/day): stabilized disease without further progression of arthritic swelling

EC50 of inhibition of overt manifestations of arthritis (clinical arthritic symptoms) ([1]; mice, CIA): 0.61 mg/kg/day
hepatic extraction ratio [2]: 0.289
inhibition of Abl (Abl): no significant inhibition
half-life (in vitro): 19.2 min
inhibition of EGFR (EGFR): no significant inhibition
IC50 (Btk): 1 to 2 nM
selectivity as inhibitor of Btk (Btk; compared with Compound 2 or dasatinib): more selective inhibitor of Btk
bioavailability (in vivo; in vivo): 24.7%
inhibition of JAK2 (JAK2): no significant inhibition
EC50 (CD20+ B cells [5]): 2 nM
inhibition of JAK1 (JAK1): no significant inhibition
inhibition of VEGFR2 (VEGFR2): no significant inhibition
EC50 ([7]; listed as (E)-1-4R)-3-(4-amino-3-(4-phenoxyphenyl)-1H-pyrazolo[3,4-d]pyrimidin-1-yl)pyrrol): ~92 nM
inhibition of JAK3 (JAK3): no significant inhibition
SMILES: CN(C)C/C=C/C(=O)N1CC[C@@H](n2nc(-c3ccc(Oc4ccccc4)cc3)c3c(N)ncnc32)C1 [Compound 1]
time after drug administration at which reversal of clinical arthritis was observed ([1]; 1.6 and 3.2 mg/kg/day): 1 days
clinical arthritic symptoms ([1]; 1.6 and 3.2 mg/kg/day, treatment for 12 days): reversed clinical arthritic symptoms
arthritic clinical scores ([1]; FIG. 4): reversal of arthritic clinical scores
inflammatory synovitis, pannus formation, synovial fluid cytokines, cartilage damage and bone erosion [1]: dose-dependently inhibited
allometric scaling of CL/F vs. Body Weight in multiple species [3]: linear
B cell viability (CD20+ B cells [4]): did not decrease
T cell viability (CD3+ T cells): did not decrease
clinical arthritis ([6]; 0.8, 1.6 and 3.2 mg/kg/day, day 0 to day 14): completely prevented and suppressed clinical arthritis
dose that completely suppressed the development of arthritis [6]: 0.8 mg/kg/day
concentration up to which IgG-mediated phagocytosis was not inhibited (RAW264.7 cells): > 10,000 nM
concentration inhibiting cytokine release from human monocytes (human monocytes): 20 to 100 nM
release of IL-1β from human monocytes following FcγR stimulation with IgG (human monocytes; listed as (E)-1-(R)-3-(4-amino-3-(4-phenoxyphenyl)-1H-pyrazolo[3,4-d]pyrimidin-1-yl)pyrro): suppressed the release of IL-1b; also recorded: monocyte release inhibition of IL-1β
basophil activation following anti-IgE stimulation ([7]; FIG. 1): basophil activation inhibition

SMILES: C[C@@H]1C[C@H]2[C@@H]3CCC4=CC(=O)C=C[C@]4(C)[C@@]3(F)[C@@H](O)C[C@]2(C)[C@@]1(O)C(=O)CO [dexamethasone, reference compound]
average clinical scores ([6]; 0.2 mg/kg, day 14): 1

bioavailability (in vivo; plasma, oral): 22.8%
EC50 (CD20+ B cells [5]): 2 nM
EC50 [7]: 20 to 100 nM
SMILES: C=CC(=O)N1CCC[C@@H](n2nc(-c3ccc(Oc4ccccc4)cc3)c3c(N)ncnc32)C1 [Compound 2, reference compound]
inflammatory synovitis, pannus formation, synovial fluid cytokines, cartilage damage and bone erosion [1]: dose-dependently inhibited
B cell viability (CD20+ B cells [4]): did not decrease
T cell viability (CD3+ T cells): did not decrease
dose that completely suppressed the development of arthritis [6]: 6.25 mg/kg/day
release of IL-1β from human monocytes following FcγR stimulation with IgG (human monocytes; listed as (R)-1-(3-(4-amino-3-(4-phenoxyphenyl)-1H-pyrazolo[3,4-d]pyrimidin-1-yl)piperidin)): suppressed the release of IL-1b; also recorded: monocyte release inhibition of IL-1β
